According to ChEMBL document CHEMBL5465560, “Selectivity Literature for EUbOPEN Chemogenomic Library” (2024):

How the values were obtained:
[1] = target: Tyrosine-protein kinase receptor UFO (Homo sapiens) (UniProt P30530); test: Selectivity interaction (Ambit KINOMEscan and KiNATiv profiling in Jurkat cells) EUB0000090b AXL; type: cell-based; details: at 1 µM
[2] = target: Activin receptor type-2B (Homo sapiens) (UniProt Q13705); test: Selectivity interaction (KinomeScan (DiscoverX)) EUB0000618a ACVR2B; details: at 10 µM
[3] = target: T1, Dual specificity tyrosine-phosphorylation-regulated kinase 2 (Homo sapiens) (UniProt Q92630); test: Selectivity interaction (KinomeScan (DiscoverX)) EUB0001619a DYRK2; details: at 1 µM
T1 sequence (whole entry): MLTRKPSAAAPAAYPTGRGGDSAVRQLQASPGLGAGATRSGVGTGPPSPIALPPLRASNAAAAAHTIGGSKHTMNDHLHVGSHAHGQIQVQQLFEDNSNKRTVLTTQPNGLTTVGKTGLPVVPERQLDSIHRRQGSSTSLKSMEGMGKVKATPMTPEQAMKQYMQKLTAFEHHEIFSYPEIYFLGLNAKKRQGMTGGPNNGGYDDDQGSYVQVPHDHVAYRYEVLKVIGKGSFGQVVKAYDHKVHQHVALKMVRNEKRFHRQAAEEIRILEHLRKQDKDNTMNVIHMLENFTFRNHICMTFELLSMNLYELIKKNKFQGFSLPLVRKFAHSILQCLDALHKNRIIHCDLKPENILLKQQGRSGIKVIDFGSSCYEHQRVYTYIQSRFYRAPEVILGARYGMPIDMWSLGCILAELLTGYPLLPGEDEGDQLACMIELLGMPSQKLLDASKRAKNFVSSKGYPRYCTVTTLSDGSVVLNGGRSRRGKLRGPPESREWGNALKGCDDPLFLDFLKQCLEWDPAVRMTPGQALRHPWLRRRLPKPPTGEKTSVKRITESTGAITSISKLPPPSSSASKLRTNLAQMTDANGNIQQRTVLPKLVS

[4] = target: Serine/threonine-protein kinase MARK2 (Homo sapiens) (UniProt Q7KZI7); test: Selectivity interaction (KinomeScan (DiscoverX)) EUB0001619a MARK2; details: at 1 µM
Serine/threonine-protein kinase MARK2 (Homo sapiens), sequence (Q7KZI7 whole entry): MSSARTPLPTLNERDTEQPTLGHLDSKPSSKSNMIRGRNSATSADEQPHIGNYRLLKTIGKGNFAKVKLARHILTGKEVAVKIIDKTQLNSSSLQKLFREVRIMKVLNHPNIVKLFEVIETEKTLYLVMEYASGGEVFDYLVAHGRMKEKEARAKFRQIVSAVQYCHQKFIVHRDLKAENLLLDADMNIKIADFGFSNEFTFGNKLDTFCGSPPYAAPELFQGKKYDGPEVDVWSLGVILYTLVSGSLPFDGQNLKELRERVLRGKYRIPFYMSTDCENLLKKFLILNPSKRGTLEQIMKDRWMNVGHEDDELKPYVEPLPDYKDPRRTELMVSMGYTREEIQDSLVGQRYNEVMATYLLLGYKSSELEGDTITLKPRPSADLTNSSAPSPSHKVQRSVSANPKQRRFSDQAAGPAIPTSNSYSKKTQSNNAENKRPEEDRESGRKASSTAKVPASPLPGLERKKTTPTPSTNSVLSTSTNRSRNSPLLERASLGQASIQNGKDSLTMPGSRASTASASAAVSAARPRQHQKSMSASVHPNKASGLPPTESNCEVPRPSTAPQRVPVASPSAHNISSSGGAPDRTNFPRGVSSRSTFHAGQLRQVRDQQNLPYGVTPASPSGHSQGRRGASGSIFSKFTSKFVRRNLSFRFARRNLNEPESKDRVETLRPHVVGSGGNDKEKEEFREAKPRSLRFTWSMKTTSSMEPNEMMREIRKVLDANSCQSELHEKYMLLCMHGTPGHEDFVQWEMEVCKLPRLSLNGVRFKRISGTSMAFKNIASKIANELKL

[5] = Selectivity interaction (KinomeScan (DiscoverX)) EUB0001619a PKNB; details: at 1 µM
[6] = target: SRSF protein kinase 3 (Homo sapiens) (UniProt Q9UPE1); test: Selectivity interaction (Kinase panel (Invitrogen)) EUB0000639a SRPK3; details: at 200 nM
[7] = target: T2, Rhodopsin kinase GRK1 (Homo sapiens) (UniProt Q15835); test: Selectivity interaction (KinomeScan (DiscoverX)) EUB0000229b GRK1; details: at 10 µM
T2 sequence (whole entry): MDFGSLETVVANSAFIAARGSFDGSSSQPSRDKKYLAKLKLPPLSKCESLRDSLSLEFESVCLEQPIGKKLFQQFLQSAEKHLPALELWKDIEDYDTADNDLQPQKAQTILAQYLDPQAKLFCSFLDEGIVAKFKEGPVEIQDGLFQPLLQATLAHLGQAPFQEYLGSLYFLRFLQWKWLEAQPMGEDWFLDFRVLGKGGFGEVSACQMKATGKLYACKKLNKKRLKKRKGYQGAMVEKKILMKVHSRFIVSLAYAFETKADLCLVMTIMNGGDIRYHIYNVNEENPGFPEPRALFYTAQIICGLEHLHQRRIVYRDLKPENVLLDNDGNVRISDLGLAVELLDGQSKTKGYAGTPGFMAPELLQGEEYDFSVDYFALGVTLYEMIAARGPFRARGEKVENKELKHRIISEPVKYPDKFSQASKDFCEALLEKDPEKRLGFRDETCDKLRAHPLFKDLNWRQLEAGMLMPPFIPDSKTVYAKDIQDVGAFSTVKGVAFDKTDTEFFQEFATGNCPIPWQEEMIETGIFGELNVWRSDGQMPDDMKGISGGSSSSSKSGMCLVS

[8] = target: Mitogen-activated protein kinase kinase kinase 9 (Homo sapiens) (UniProt P80192); test: Selectivity interaction (ProQinase) EUB0000171b MAP3K9
Mitogen-activated protein kinase kinase kinase 9 (Homo sapiens), sequence (P80192 whole entry, looked up): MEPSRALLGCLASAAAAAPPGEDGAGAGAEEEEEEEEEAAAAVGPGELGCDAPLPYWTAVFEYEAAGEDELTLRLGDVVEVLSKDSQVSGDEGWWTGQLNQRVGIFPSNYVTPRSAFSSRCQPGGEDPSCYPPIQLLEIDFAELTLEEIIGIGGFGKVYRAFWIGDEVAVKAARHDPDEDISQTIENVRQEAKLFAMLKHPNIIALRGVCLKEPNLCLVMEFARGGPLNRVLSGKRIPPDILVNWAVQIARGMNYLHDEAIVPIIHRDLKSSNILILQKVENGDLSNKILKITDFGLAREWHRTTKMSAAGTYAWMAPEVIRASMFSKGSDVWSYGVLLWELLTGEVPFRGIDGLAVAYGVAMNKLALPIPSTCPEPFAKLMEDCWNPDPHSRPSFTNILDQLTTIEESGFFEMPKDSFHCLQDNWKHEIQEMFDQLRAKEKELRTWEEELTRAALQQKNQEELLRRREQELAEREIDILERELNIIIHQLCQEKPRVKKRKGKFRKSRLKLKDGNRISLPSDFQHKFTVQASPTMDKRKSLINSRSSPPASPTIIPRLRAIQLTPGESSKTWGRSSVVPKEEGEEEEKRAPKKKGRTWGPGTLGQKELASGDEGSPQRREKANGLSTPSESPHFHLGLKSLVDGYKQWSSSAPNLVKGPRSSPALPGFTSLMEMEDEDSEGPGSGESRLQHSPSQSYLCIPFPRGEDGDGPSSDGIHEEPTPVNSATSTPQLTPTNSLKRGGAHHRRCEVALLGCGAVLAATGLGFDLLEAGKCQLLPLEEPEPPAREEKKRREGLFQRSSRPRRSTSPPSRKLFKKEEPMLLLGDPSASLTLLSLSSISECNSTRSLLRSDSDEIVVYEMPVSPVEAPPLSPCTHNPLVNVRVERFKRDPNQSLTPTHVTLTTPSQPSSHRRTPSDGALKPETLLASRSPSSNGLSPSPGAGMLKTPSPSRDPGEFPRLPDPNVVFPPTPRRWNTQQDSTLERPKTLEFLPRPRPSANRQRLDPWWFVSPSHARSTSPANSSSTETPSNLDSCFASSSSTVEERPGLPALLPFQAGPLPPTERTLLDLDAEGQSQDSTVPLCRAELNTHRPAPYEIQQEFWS

[9] = target: Serine/threonine-protein kinase PAK 3 (Homo sapiens) (UniProt O75914); test: Selectivity interaction (KinomeScan (DiscoverX)) EUB0001049a PAK3; details: at 1 µM
[10] = target: L-type calcium channel Cav1.2 (CACNA1C) (Homo sapiens, UniProt Q13936); test: Selectivity interaction (Panel of kinases, GPCRs, ion channels and transporters (enzymatic assay)) EUB0000266bCl CACNA1C
L-type calcium channel Cav1.2 (CACNA1C), sequence (Q13936 whole entry): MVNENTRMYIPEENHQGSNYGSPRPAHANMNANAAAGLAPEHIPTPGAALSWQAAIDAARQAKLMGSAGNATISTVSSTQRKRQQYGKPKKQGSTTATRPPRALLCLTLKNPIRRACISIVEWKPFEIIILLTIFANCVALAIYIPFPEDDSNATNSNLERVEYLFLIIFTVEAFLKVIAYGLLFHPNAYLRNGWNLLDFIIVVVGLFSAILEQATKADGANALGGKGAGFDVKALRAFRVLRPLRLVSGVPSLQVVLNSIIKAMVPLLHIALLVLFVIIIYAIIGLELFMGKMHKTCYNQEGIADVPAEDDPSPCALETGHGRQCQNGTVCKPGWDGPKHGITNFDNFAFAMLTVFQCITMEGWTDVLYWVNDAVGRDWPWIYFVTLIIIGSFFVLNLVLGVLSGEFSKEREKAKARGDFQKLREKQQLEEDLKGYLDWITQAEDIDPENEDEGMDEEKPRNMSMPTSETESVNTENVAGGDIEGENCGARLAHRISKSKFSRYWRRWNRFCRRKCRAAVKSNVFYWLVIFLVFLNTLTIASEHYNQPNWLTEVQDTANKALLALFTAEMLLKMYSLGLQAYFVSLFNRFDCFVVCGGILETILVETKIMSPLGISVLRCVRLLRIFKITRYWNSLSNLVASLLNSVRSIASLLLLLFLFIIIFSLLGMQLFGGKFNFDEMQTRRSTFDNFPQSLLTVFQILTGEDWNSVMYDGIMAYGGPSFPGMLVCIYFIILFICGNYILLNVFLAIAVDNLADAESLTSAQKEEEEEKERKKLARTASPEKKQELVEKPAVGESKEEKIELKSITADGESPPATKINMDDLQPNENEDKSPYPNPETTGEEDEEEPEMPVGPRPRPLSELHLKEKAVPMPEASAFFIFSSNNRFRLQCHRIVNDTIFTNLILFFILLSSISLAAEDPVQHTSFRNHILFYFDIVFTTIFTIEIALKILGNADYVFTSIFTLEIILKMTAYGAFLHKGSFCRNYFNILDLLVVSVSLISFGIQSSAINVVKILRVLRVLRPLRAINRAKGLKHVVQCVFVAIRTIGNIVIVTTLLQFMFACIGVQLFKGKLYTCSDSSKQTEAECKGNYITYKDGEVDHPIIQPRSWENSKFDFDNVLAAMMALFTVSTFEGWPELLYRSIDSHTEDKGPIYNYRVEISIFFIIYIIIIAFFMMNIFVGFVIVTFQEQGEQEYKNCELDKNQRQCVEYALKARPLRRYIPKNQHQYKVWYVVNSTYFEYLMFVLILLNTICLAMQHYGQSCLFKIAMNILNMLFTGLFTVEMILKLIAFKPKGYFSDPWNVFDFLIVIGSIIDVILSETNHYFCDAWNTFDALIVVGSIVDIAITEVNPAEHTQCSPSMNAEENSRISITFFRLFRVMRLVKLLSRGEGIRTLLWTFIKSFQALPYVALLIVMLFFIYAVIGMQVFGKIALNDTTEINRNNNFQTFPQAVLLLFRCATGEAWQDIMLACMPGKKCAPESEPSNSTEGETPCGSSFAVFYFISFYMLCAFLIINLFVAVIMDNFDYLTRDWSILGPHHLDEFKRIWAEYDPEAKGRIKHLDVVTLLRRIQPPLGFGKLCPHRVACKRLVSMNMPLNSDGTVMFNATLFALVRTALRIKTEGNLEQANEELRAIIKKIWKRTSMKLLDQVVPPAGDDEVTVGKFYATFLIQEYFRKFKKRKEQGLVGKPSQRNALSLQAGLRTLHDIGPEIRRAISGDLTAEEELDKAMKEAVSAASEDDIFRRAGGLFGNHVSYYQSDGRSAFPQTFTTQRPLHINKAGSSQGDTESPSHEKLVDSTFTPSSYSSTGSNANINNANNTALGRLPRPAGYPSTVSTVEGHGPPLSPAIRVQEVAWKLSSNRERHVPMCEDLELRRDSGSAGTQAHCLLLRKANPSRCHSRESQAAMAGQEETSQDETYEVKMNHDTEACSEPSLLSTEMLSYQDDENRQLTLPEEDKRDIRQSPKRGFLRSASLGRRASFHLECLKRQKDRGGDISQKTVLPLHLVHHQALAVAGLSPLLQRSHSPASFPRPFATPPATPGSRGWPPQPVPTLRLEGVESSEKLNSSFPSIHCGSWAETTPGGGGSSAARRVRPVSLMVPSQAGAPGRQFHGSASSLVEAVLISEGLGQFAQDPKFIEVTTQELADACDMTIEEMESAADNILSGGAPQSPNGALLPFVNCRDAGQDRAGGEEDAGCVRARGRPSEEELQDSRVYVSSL

[11] = target: Ribosomal protein S6 kinase alpha-4 (Homo sapiens) (UniProt O75676); test: Selectivity interaction (KinomeScan (DiscoverX)) EUB0000666a RPS6KA4; details: at 10 µM
Ribosomal protein S6 kinase alpha-4 (Homo sapiens), sequence (O75676 whole entry, looked up): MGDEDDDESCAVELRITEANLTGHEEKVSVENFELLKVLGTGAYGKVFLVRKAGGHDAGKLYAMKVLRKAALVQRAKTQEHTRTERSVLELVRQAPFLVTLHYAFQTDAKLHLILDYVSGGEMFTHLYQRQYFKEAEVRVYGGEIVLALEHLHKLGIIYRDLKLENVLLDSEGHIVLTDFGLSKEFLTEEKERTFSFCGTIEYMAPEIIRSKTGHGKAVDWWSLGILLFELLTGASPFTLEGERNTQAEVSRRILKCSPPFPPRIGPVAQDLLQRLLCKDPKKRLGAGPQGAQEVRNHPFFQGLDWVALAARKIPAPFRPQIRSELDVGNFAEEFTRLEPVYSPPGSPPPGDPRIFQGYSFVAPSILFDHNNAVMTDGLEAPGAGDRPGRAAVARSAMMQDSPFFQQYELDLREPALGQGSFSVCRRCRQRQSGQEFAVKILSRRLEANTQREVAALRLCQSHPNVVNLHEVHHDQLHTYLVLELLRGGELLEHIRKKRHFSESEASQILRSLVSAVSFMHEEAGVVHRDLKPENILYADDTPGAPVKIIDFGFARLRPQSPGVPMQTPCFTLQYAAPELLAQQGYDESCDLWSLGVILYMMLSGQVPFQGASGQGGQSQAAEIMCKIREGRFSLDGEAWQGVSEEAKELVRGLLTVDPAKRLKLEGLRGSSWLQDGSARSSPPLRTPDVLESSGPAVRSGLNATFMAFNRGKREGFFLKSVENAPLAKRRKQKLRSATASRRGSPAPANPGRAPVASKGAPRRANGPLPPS

[12] = target: Dual specificity mitogen-activated protein kinase kinase 2 (Homo sapiens) (UniProt P36507); test: Selectivity interaction (Kinase panel (Z-LYTE Assay)) EUB0001632a MAP2K2; details: at 10 µM

Structure (SMILES): CN(C)C/C=C/C(=O)Nc1ccc(C(=O)N2CCCC(Nc3ncc(Cl)c(-c4c[nH]c5ccccc45)n3)C2)cc1 (stereo not drawn)
- % of control [1]: 92%

Structure (SMILES): O[C@H]1CC[C@H](Nc2ncc3nc(Nc4c(F)cc(F)cc4F)n([C@H]4CCOC4)c3n2)CC1
- % of control [2]: 100%

Structure (SMILES): N#Cc1cccc(-c2c[nH]c3ncnc(N4CCOCC4)c23)c1
- % of control [3]: 92%
- % of control [4]: 43%
- % of control [5]: 47%

Structure (SMILES): CC[C@@H]1[C@H](F)C(=O)N[C@@H]1COc1nccc2cc(C(N)=O)c(OC)cc12 [ZIMLOVISERTIB]
- % of inhibition [6]: 8.65%

Structure (SMILES): COc1cc(N(C)c2ccnc3ccc(C(F)(F)F)cc23)cc(OC)c1OC
- % binding [7]: 68%

Structure (SMILES): C=CC(=O)Nc1cccc(C(=O)Nc2ccc(Nc3cc(-c4[nH]c(SC)nc4C)ccn3)cc2)c1
- % of control ([8]; at 1 µM): 80%
- % of control ([8]; at 5 µM): 45%

Structure (SMILES): COc1cc(Nc2nc(C)cc(-c3cnn4nc(OC)ccc34)n2)cc(C(F)(F)F)c1
- % of control [9]: 85%

Structure (SMILES): CCn1c(-c2nc3cc(C(=O)N4CCCC(N)C4)ccc3n2C)cc2ccccc21 (stereo not drawn)
- XC50 [10]: > 15.8 µM

Structure (SMILES): O=C(NOC[C@H](O)CO)c1ccc(F)c(F)c1Nc1ccc(I)cc1F
- % of control [11]: 86%

Structure (SMILES): Cn1cc(-n2cnc3c(NCc4nc5cc(Cl)c(Cl)cc5[nH]4)nc(N4CCOCC4)nc32)cn1
- % of control [12]: 3.34%
